{"source": "patent US10010080B2", "about": "“Process for the production of partially polymerized antimicrobial silanol quaternary ammonium compounds” (Indusco, Ltd., priority 2015, dated 2018)", "origin": "cited, not measured here", "settings": "Dow Corning material safety data sheet"}
{"smiles": "CO[Si](CCCCl)(OC)OC", "note": "[CPTMS, chloropropyptrimethoxy silane]", "values": [{"measurement": "time weighted average (TWA) for human exposure", "result": 0.1, "unit": "part per million"}]}
